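Five compound concentrations were applied to cells in 96-well plates for 48 hours; endpoints were derived by simple linear interpolation of the resulting dose-response curve. GI50: concentration for 50% inhibition of growth.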 Active and inactive are the calls of the source. Cut-off read from the data, not from the text of the source: active = GI50 up to about 1.1 µM and inactive = higher. Where only a bound is given, the exact number is not on record here.

What all share (assay): NCI-60 cell line screen, 48 h
Experiment [1] concerns 786-0.
In experiment [2] the test system is CAKI-1.
Experiment [3] relates to COLO 205.
Experiment [4] relates to HCT-15.
Experiment [5] relates to K562.
For experiment [6], the system named is M14.
Experiment [7] concerns MOLT-4.
Experiment [8] deals with OVCAR-4.
For experiment [9], the system named is SF-295.
Experiment [10] relates to SK-MEL-2.
Experiment [11] relates to SNB-19.
Experiment [12] relates to SNB-75.
Experiment [13] has as its system TK-10.
Experiment [14] relates to UACC-257.
The subject of experiment [15] is CCRF-CEM.
Experiment [16] concerns HL-60.
Experiment [17] has as its system NCI-H226.

On to `NC(=O)C(=Cc1ccc(CP(=O)(O)O)cc1)C(N)=O`, for which the GI50 is > 100 µM (inactive) in experiment [1]; > 100 µM (inactive) in experiment [2]; > 100 µM (inactive) in experiment [3]; greater than 100 µM in [4]; > 100 µM (inactive) in [5]; > 100 µM (inactive) in experiment [6]. In addition, the GI50 in experiment [7], in experiment [8], in experiment [9], in [10], in experiment [11] and in [12] was > 100 µM (inactive) in each case. In addition, the GI50 in experiment [13] and in experiment [14] was > 100 µM (inactive) in each case.

Regarding `Cc1cc2c(=O)c3ccc(Cl)cc3[nH]c2c(C(N)=O)c1C`, the GI50 was > 100 µM (inactive) in [1]; > 100 µM (inactive) in experiment [15]; > 100 µM (inactive) in experiment [3]; greater than 100 µM in [4]; > 100 µM (inactive) in [16]; 83.2 µM (inactive) in [5]. The GI50 in [6], in experiment [7], in experiment [8], in experiment [9], in [10] and in experiment [11] was > 100 µM (inactive) throughout. For the same compound, the GI50 in experiment [12] was 35.5 µM (inactive); in experiment [13], > 100 µM (inactive); in experiment [14], > 100 µM (inactive).

Regarding `COc1cc2c(cc1OC)C(=O)C(C1=C(SC(=N)N)C(=O)c3cc(OC)c(OC)cc31)C2` (configuration not stated), the GI50 was > 100 µM (inactive) in experiment [1]; > 100 µM (inactive) in [2]; > 100 µM (inactive) in experiment [15]; > 100 µM (inactive) in experiment [3]; greater than 100 µM in experiment [4]; > 100 µM (inactive) in experiment [5]. Further, the GI50 is > 100 µM (inactive) in [6]; > 100 µM (inactive) in experiment [7]; > 100 µM (inactive) in experiment [17]; 78.9 µM (inactive) in experiment [8]; > 100 µM (inactive) in experiment [9]; > 100 µM (inactive) in experiment [10]. Moreover, the GI50 in [11], in experiment [12] and in experiment [14] was > 100 µM (inactive) each time.

Turning to `NC(CCSC(F)F)C(=O)O` (configuration not stated), the GI50 was > 100 µM (inactive) in [1]; > 100 µM (inactive) in [2]; > 100 µM (inactive) in experiment [15]; 92.3 µM (inactive) in experiment [3]; > 100 µM (inactive) in [5]; > 100 µM (inactive) in [6]. Also, the GI50 in [7], in [17], in [8], in [9], in [10] and in experiment [11] was > 100 µM (inactive) throughout. Moreover, the GI50 in experiment [12] and in [13] was > 100 µM (inactive) each time.

In the case of `CCOc1ccc(/C=C/C(=O)c2sc(NNC(C)=O)nc2C)cc1`, the GI50 in [1] is > 100 µM (inactive); in experiment [2] it was > 100 µM (inactive); in experiment [15] it was > 100 µM (inactive); in experiment [3] it was > 100 µM (inactive); in experiment [4], greater than 100 µM; in experiment [16], > 100 µM (inactive). For the same compound, the GI50 in [5], in [7], in experiment [9], in experiment [10], in [11] and in experiment [12] was > 100 µM (inactive) each time. The GI50 in [13] and in [14] was > 100 µM (inactive) in each case.

(Values after ChEMBL document CHEMBL1201862, “PubChem BioAssay data set” (2004).)
